Reference: patent publication US12447149B2, “Formulations of vimseltinib” (Deciphera Pharmaceuticals, LLC, priority 2023, dated 2025)

How the values were obtained:
Assay type in all cases: physicochemical
[1] = Particle size analysis by laser diffraction (Malvern Mastersizer 3000, wet dispersion); conditions: volume distribution
Procedure: Particle size analysis of dihydrate vimseltinib drug substance samples was determined by laser diffraction using a Malvern Mastersizer 3000 instrument in a wet dispersion mode.
Prior to analysis, dihydrate drug substance samples were rotated and inverted in the sample container at least 10 times to ensure homogeneity. Between 20 and 25 mg of sample was weighed into a Malvern Glass tube. 20 mL of the Dispersant Solution (0.1% Span 85 in Isoparaffin G) was added and vortexed until a homogeneous suspension was obtained (˜30 s). The sample was then placed in a Vibra-Cell ultrasonic processor. The amplitude was set to the target of 30% (4 Watts) using an external probe (Vibra-Cell) during 90 sec.
After background measurement, the sample dispersion was slowly added to the dispersion unit of the instrument to achieve an obscuration level target of 5%. The sample was stirred at 3250 rpm for at least 1 minute to ensure dispersion and stabilization of the sample. After stabilization, the measurement was started and performed using a Malvern Mastersizer 3000 according to the method conditions provided in Table 17.

[2] = Particle size distribution (PSD) of crystalline dihydrate form and seeds, DMAC-water crystallization; conditions: for particle size d10 of seeds / particle size d50 of seeds / particle size d90 of seeds: seeds used in DMAC-water crystallization
[3] = Static storage stability of crystalline dihydrate and anhydrous forms (XRPD, DSC, KF weekly for four weeks)
Procedure: The stability of crystalline dihydrate and anhydrous forms of the compound represented by Formula (I) at varying relative humidity (RH) and temperature was investigated.
For example, the stability of crystalline dihydrate and anhydrous forms of the compound represented by Formula (I), as prepared according to Example 1 and Example 2, respectively, was studied under other conditions by placing aliquots of each form in static storage at conditions of 40° C./75% RH, 25° C./97% RH, 40° C./0% RH and 25° C./0% RH and analyzing the aliquots once weekly for four weeks using XRPD, DSC, and KF.

[4] = milled seeds of crystalline dihydrate form used in DMAC-water crystallization, listed as 1
[5] = storage 25° C./0% RH, Week 4, listed as crystalline dihydrate form (having average crystal sizes of about 1 mm)
[6] = storage 40° C./0% RH, Week 4, listed as crystalline dihydrate form (having average crystal sizes of about 1 mm)
[7] = milled seeds of crystalline dihydrate form used in DMAC-water crystallization, listed as 2
[8] = jet-milled seed batch, crystallization 1 at 60° C. with 7% seeds, crystallization 2 at 64° C. with 5% seeds
[9] = listed as seeds of a smaller size

## Cc1nc(-c2cnc(NC(C)C)n(C)c2=O)ccc1Oc1ccnc(-c2cnn(C)c2)c1.O.O [Lot 1]
[1]; listed as 1
  D(10): 9 μm
  D(50): 29 μm
  D(90): 59 μm
[2]; [4]
  Particle Size d10: 2 microns
  Particle Size d50: 5 microns
  Particle Size d90: 13 microns

## Cc1nc(-c2cnc(NC(C)C)n(C)c2=O)ccc1Oc1ccnc(-c2cnn(C)c2)c1.O.O [Lot 4]
[1]; listed as 4
  D(10): 7 μm
  D(50): 19 μm
  D(90): 36 μm

## Cc1nc(-c2cnc(NC(C)C)n(C)c2=O)ccc1Oc1ccnc(-c2cnn(C)c2)c1.O.O [Dihydrate form of the compound represented by Formula (I) (h]
[3]; storage 25° C./0% RH, Week 1
  KF (%): 7.7%
  XRPD: Dihydrate
[3]; storage 25° C./0% RH, Week 2
  KF (%): 7.6%
  XRPD: Dihydrate
[3]; storage 25° C./0% RH, Week 3
  KF (%): 7.2%
  XRPD: Dihydrate
[3]; storage 25° C./0% RH, Week 4
  KF (%): 5.8%
[3]; [5]
  KF (%): 5.8%
  XRPD: partially converted to the crystalline anhydrous form
[3]; storage 25° C./97% RH, Week 1
  KF (%): 7.7%
  XRPD: Dihydrate
[3]; storage 25° C./97% RH, Week 2
  KF (%): 7.7%
  XRPD: Dihydrate
[3]; storage 25° C./97% RH, Week 3
  KF (%): 7.4%
  XRPD: Dihydrate
[3]; storage 25° C./97% RH, Week 4
  KF (%): 7.7%
  XRPD: Dihydrate
[3]; storage 25° C./97% RH, Week 4, listed as crystalline dihydrate form (having average crystal sizes of about 1 mm)
  XRPD: remained stable and unchanged
[3]; storage 40° C./0% RH, Week 1
  KF (%): 0.8%
[3]; storage 40° C./0% RH, Week 2
  KF (%): 0.3%
[3]; storage 40° C./0% RH, Week 3
  KF (%): 0.1%
  XRPD: Anhydrous
[3]; storage 40° C./0% RH, Week 4
  KF (%): 0.2%
[3]; [6]
  KF (%): 0.2%
  XRPD: partially converted to the crystalline anhydrous form
[3]; storage 40° C./75% RH, Week 1
  KF (%): 7.7%
  XRPD: Dihydrate
[3]; storage 40° C./75% RH, Week 2
  KF (%): 7.6%
  XRPD: Dihydrate
[3]; storage 40° C./75% RH, Week 3
  KF (%): 7.7%
  XRPD: Dihydrate
[3]; storage 40° C./75% RH, Week 4
  KF (%): 7.7%
  XRPD: Dihydrate
[3]; storage 40° C./75% RH, Week 4, listed as crystalline dihydrate form (having average crystal sizes of about 1 mm)
  XRPD: remained stable and unchanged

## Cc1nc(-c2cnc(NC(C)C)n(C)c2=O)ccc1Oc1ccnc(-c2cnn(C)c2)c1.O.O [non-milled batch of crystalline dihydrate form of the compou]
[2]
  particle size d10 of seeds: about 5 μm
  particle size d50 of seeds: about 15 μm
  particle size d90 of seeds: about 36 μm

## Cc1nc(-c2cnc(NC(C)C)n(C)c2=O)ccc1Oc1ccnc(-c2cnn(C)c2)c1.O.O [Lot 2]
[1]; listed as 2
  D(10): 6 μm
  D(50): 18 μm
  D(90): 37 μm
[2]; [7]
  Particle Size d10: 2 microns
  Particle Size d50: 6 microns
  Particle Size d90: 11 microns

## Cc1nc(-c2cnc(NC(C)C)n(C)c2=O)ccc1Oc1ccnc(-c2cnn(C)c2)c1.O.O [Seed batch]
[2]; [8]
  Particle Size d10: 1.4 microns
  Particle Size d50: 2.7 microns
  Particle Size d90: 5.0 microns
[2]; [9]
  particle size d10 of seeds: about 1 μm
  particle size d50 of seeds: about 3 μm
  particle size d90 of seeds: about 5 μm

## Cc1nc(-c2cnc(NC(C)C)n(C)c2=O)ccc1Oc1ccnc(-c2cnn(C)c2)c1.O.O [milled seeds]
[2]
  particle size d10 of seeds: about 3 μm
  particle size d50 of seeds: about 6 μm
  particle size d90 of seeds: about 12 μm

## Cc1nc(-c2cnc(NC(C)C)n(C)c2=O)ccc1Oc1ccnc(-c2cnn(C)c2)c1.O.O [Crystalline dihydrate form of the compound represented by Fo]
[2]; [8]
  Particle Size d10: 3.9 microns
  Particle Size d50: 8.5 microns
  Particle Size d90: 16.0 microns
